Columns and labels:
[1] = tested on: monoclonal antibody prepared from hapten LIN-S2; test: Cross reaction (specificity) of the monoclonal antibody prepared from hapten LIN-S2; format: binding, mouse; settings: antibody from hapten scheme LIN-S2; lincomycin = 100%
Method: (§1) When the mouse serum titer is determined as high, the spleen cells are collected and fused with SP2/0 myeloma cells at an amount ratio of 7:1. The cell supernatant is detected by indirect competitive ELISA for screening the positive wells. The cells in the positive wells are cloned via limiting dilution method until a hybridoma cell secreting monoclonal antibody is obtained. The 50% inhibitory concentration and specificity of the monoclonal antibodies prepared from the two hapten schemes above are detected.

[2] = tested on: lincomycin monoclonal antibody prepared from hapten LIN-S1; test: Cross reaction (specificity) of the monoclonal antibody prepared from hapten LIN-S1; format: binding, mouse; settings: antibody from hapten scheme LIN-S1; lincomycin = 100%
Method: as §1

Structure (SMILES) | Cross reaction [1] [%] | Cross reaction [2] [%]
CC[C@H]1OC(=O)C[C@@H](O)[C@H](C)[C@@H](O[C@@H]2O[C@H](C)[C@@H](O[C@H]3C[C@@](C)(O)[C@@H](O)[C@H](C)O3)[C@H](N(C)C)[C@H]2O)[C@@H](CC=O)C[C@@H](C)C(=O)/C=C/C(C)=C/[C@@H]1CO[C@@H]1O[C@H](C)[C@@H](O)[C@@H](OC)[C@H]1OC [Tylosin] | <1 | <1
[H]/N=C(/N)N[C@H]1[C@H](O)[C@@H](O)[C@H](O[C@@H]2O[C@@H](C)[C@](O)(C=O)[C@H]2O[C@@H]2O[C@@H](CO)[C@H](O)[C@@H](O)[C@@H]2NC)[C@@H](N/C(N)=N\[H])[C@@H]1O [Streptomycin] | 9.2 | <1
CCC[C@@H]1C[C@@H](C(=O)N[C@@H]([C@H]2O[C@H](SC)[C@H](O)[C@@H](O)[C@H]2O)[C@@H](C)O)N(C)C1 [Lincomycin] | 100 | 100
CC[C@H]1OC(=O)[C@H](C)[C@@H](O[C@H]2C[C@@](C)(OC)[C@@H](O)[C@H](C)O2)[C@H](C)[C@@H](O[C@@H]2O[C@H](C)C[C@H](N(C)C)[C@H]2O)[C@](C)(O)C[C@@H](C)C(=O)[C@H](C)[C@@H](O)[C@]1(C)O [Erythromycin] | <1 | <1
